Data published in patent publication US12060588B2, “Methods of editing DNA methylation” (Whitehead Institute for Biomedical Research, priority 2016, dated 2024).

Assays:
[1] = tested on: Snrpn promoter (IG-DMR GFP/Pat reporter), skin dermal cells; assay: In vivo activation of the IG-DMR GFP/Pat reporter in mouse skin (lentiviral delivery)
Excerpt: (§1) FIGS. 7A-7H depict targeted ex vivo and in vivo DNA methylation editing by dCas9-Tet1 to activate a silenced GFP reporter. FIG. 7A provides a schematic diagram illustrating the experimental procedure for the ex vivo activation of a silenced GFP reporter in mouse fibroblast cells. Mouse tail fibroblast cells were derived from a genetically modified mouse line carrying a paternal IG-DMR-Snrpn-GFP allele (IG-DMRGFP/Pat) in the Dlk1-Dio3 locus. The IG-DMR-Snrpn promoter on the paternal allele is hypermethylated so that the GFP reporter is constitutively silenced. The cultured fibroblast cells were infected with lentiviral vectors expressing dCas9-Tet1 and gRNAs to demethylate the Snrpn promoter and activate the GFP reporter. Cells are subject to imaging and FACS analysis. […] Stained in red for Cherry, green for GFP and DAPI for nuclei. Scale bar: 100 um. […] Brains were sliced and analyzed by immunohistochemical approaches. […] FIGS. 7G-7H provide quantification of the percentage of IG-DMR^GFP/Pat cells with GFP activation in Cherry (gRNAs) positive cells in the in vivo lentiviral delivery experiment in the brain (FIG. 7G) and in the skin epidemis (FIG. 7H). […]
FIGS. 14A-14F depict activation of IG-DMR^GFP/Pat reporter in mouse skin cells by dCas9-Tet1 mediated demethylation. […] Note red auto-fluorescence on the left edges of the epidermis. […]

[2] = tested on: Snrpn promoter (IG-DMR GFP/Pat reporter); assay: Ex vivo activation of the silenced IG-DMR-Snrpn-GFP reporter in mouse tail fibroblasts; type: cell-based
Excerpt: as §1, with “um. Note that in order to turn on the Snrpn-GFP methylation reporter, both dCas9-Tet1 and target gRNA lentiviral vectors have to be transduced into the same cells.” for “um.”

Row | Substance | GFP reporter activation in infected (Cherry positive) skin dermal cells in vivo ([1]; with Snrpn gRNAs, lentiviral injection into dermal sites, 3 days) | GFP reporter activation in Cherry (gRNA) positive fibroblasts ([2]; with Snrpn target gRNAs, lentiviral transduction) | GFP reporter activation in infected skin dermal cells in vivo ([1]; with a scrambled gRNA) | GFP reporter activation in Cherry (gRNA) positive fibroblasts ([2]; with a sc gRNA)
1 | dC-dT: dCas9 fused to an inactive mutant form of Tet1 (H1672Y, D1674A), SEQ ID NO: 160 | did not activate GFP reporter expression | cannot turn on GFP reporter expression | – | –
2 | dCas9-Tet1: catalytically inactive Cas9 (dCas9) fused through NLS to the Tet1 catalytic domain, SEQ ID NO: 159; lentivirally expressed with gRNAs | – | – | did not activate GFP reporter expression | cannot turn on GFP reporter expression
